Results reported in PubChem BioAssay AID248 (DTP/NCI, 2004).
Values joined by “and” are separate entries in the source; they are usually repeats but may differ in a detail not shown here. Identical values can stand only once. Toxic doses and inconclusive results are not listed. Cut-off read from the data, not from the text of the source: active = T/C of 150% or more; inactive = T/C below 125%.

Tested on: L1210 leukemia ip in BDF1 mice, survival T/C
Assay: NCI In Vivo Anticancer Drug Screen. Data for tumor model L1210 Leukemia (intraperitoneal) in B6D2F1 (BDF1) mice
Conditions: endpoint: mean survival time, higher = longer survival
In short: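 Survival endpoint. Drug-treated group vs vehicle group, expressed as T divided by C. Tumor passaged by transplantation.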

[1] = dose: 100.0 mg/kg/injection, schedule: Q01DX009 (ip), vehicle: Klucel (hydroxypropylcellulose) (HPC)
[2] = dose: 200.0 mg/kg/injection, schedule: Q01DX009 (ip), vehicle: Klucel (hydroxypropylcellulose) (HPC)
[3] = dose: 50.0 mg/kg/injection, schedule: Q01DX001 (ip), vehicle: saline
[4] = dose: 100.0 mg/kg/injection, schedule: Q01DX001 (ip), vehicle: saline
[5] = dose: 200.0 mg/kg/injection, schedule: Q01DX001 (ip), vehicle: saline
[6] = dose: 400.0 mg/kg/injection, schedule: Q01DX001 (ip), vehicle: saline
[7] = dose: 100.0 mg/kg/injection, schedule: Q01DX009 (ip), vehicle: saline with Tween-80
[8] = dose: 200.0 mg/kg/injection, schedule: Q01DX009 (ip), vehicle: saline with Tween-80
[9] = dose: 75.0 mg/kg/injection, schedule: Q01DX001 (ip), vehicle: saline
[10] = dose: 150.0 mg/kg/injection, schedule: Q01DX001 (ip), vehicle: saline
[11] = dose: 100.0 mg/kg/injection, schedule: Q01DX001 (ip), vehicle: carboxymethylcellulose (CMC)
[12] = dose: 200.0 mg/kg/injection, schedule: Q01DX001 (ip), vehicle: carboxymethylcellulose (CMC)
[13] = dose: 400.0 mg/kg/injection, schedule: Q01DX001 (ip), vehicle: carboxymethylcellulose (CMC)
[14] = dose: 100.0 mg/kg/injection, schedule: Q04DX003 (ip), vehicle: saline with Tween-80
[15] = dose: 200.0 mg/kg/injection, schedule: Q04DX003 (ip), vehicle: saline with Tween-80
[16] = dose: 400.0 mg/kg/injection, schedule: Q01DX009 (ip), vehicle: saline with Tween-80
[17] = dose: 400.0 mg/kg/injection, schedule: Q04DX003 (ip), vehicle: saline with Tween-80

Measured: T/C

CCOC(=O)C(O)(CC)c1ccncc1Br (centres undefined)
inactive: dose: 75.0 mg/kg/injection, schedule: Q04DX003 (ip), vehicle: Klucel (hydroxypropylcellulose) (HPC) 95 % of control | dose: 100.0 mg/kg/injection, schedule: Q01DX001 (ip), vehicle: Klucel (hydroxypropylcellulose) (HPC) 102 % of control | dose: 150.0 mg/kg/injection, schedule: Q04DX003 (ip), vehicle: Klucel (hydroxypropylcellulose) (HPC) 91 % of control | dose: 200.0 mg/kg/injection, schedule: Q01DX001 (ip), vehicle: Klucel (hydroxypropylcellulose) (HPC) 102 % of control | dose: 300.0 mg/kg/injection, schedule: Q04DX003 (ip), vehicle: Klucel (hydroxypropylcellulose) (HPC) 101 % of control | dose: 400.0 mg/kg/injection, schedule: Q01DX001 (ip), vehicle: Klucel (hydroxypropylcellulose) (HPC) 112 % of control

COc1ccc(CCC(C)=O)cc1OC
inactive: [1] 97 % of control | [2] 93 % of control

COc1ccc(C(C)(C)C#N)cc1
inactive: [3] 102 % of control | [4] 100 % of control | [5] 100 % of control | [6] 97 % of control

COc1ccc(OC)c(/C=N\NC(=O)N/N=C/c2cc(OC)ccc2OC)c1
inactive: dose: 100.0 mg/kg/injection, schedule: Q04DX002 (ip), vehicle: saline with Tween-80 101 % of control | dose: 200.0 mg/kg/injection, schedule: Q04DX002 (ip), vehicle: saline with Tween-80 101 % of control | dose: 400.0 mg/kg/injection, schedule: Q04DX002 (ip), vehicle: saline with Tween-80 95 % of control

O=NN(CCCl)C(=O)c1cc(Cl)cc(Cl)c1
inactive: dose: 12.5 mg/kg/injection, schedule: Q01DX009 (ip), vehicle: saline with Tween-80 115 % of control | dose: 25.0 mg/kg/injection, schedule: Q01DX009 (ip), vehicle: saline with Tween-80 117 % of control | dose: 50.0 mg/kg/injection, schedule: Q01DX009 (ip), vehicle: saline with Tween-80 111 % of control and 91 % of control | [7] 93 % of control | [8] 99 % of control

CC(=O)ON1CCC=NC1
inactive: dose: 50.0 mg/kg/injection, schedule: Q04DX002 (ip), vehicle: saline 102 % of control | dose: 100.0 mg/kg/injection, schedule: Q04DX002 (ip), vehicle: saline 91 % of control | dose: 200.0 mg/kg/injection, schedule: Q04DX002 (ip), vehicle: saline 91 % of control | dose: 400.0 mg/kg/injection, schedule: Q04DX002 (ip), vehicle: saline 109 % of control

CC1(C)CN(Cc2ccccc2)C(C)(C)CN1
inactive: dose: 0.19 mg/kg/injection, schedule: Q01DX009 (ip), vehicle: saline with Tween-80 93 % of control | dose: 0.39 mg/kg/injection, schedule: Q01DX009 (ip), vehicle: saline with Tween-80 100 % of control | dose: 0.78 mg/kg/injection, schedule: Q01DX009 (ip), vehicle: saline with Tween-80 106 % of control | dose: 1.56 mg/kg/injection, schedule: Q01DX009 (ip), vehicle: saline with Tween-80 101 % of control | dose: 12.5 mg/kg/injection, schedule: Q04DX003 (ip), vehicle: saline with Tween-80 92 % of control | dose: 25.0 mg/kg/injection, schedule: Q04DX003 (ip), vehicle: saline with Tween-80 103 % of control

CCC(C(=O)NC(=O)NO)c1ccccc1 (centres undefined)
inactive: dose: 100.0 mg/kg/injection, schedule: Q01DX Z (ip), vehicle: carboxymethylcellulose (CMC) 94 % of control | dose: 300.0 mg/kg/injection, schedule: Q01DX Z (ip), vehicle: carboxymethylcellulose (CMC) 105 % of control | dose: 400.0 mg/kg/injection, schedule: Q01DX Z (ip), vehicle: carboxymethylcellulose (CMC) 90 % of control

CC1OC2COC(C)OC2C(C(O)COC(c2ccccc2)(c2ccccc2)c2ccccc2)O1 (centres undefined)
inactive: [1] 93 % of control | dose: 100.0 mg/kg/injection, schedule: Q04DX003 (ip), vehicle: Klucel (hydroxypropylcellulose) (HPC) 98 % of control | [2] 95 % of control | dose: 200.0 mg/kg/injection, schedule: Q04DX003 (ip), vehicle: Klucel (hydroxypropylcellulose) (HPC) 97 % of control | dose: 400.0 mg/kg/injection, schedule: Q01DX009 (ip), vehicle: Klucel (hydroxypropylcellulose) (HPC) 101 % of control | dose: 400.0 mg/kg/injection, schedule: Q04DX003 (ip), vehicle: Klucel (hydroxypropylcellulose) (HPC) 95 % of control

CNCCc1cc2c(cc1C=O)OCO2
inactive: [9] 96 % of control | [10] 106 % of control

O=C(O)CC/C(=N/OCc1cc2c(cc1Cl)OCO2)C(=O)O
inactive: dose: 100.0 mg/kg/injection, schedule: Q04DX003 (ip), vehicle: saline sonified 108 % of control | dose: 200.0 mg/kg/injection, schedule: Q04DX003 (ip), vehicle: saline sonified 93 % of control | dose: 400.0 mg/kg/injection, schedule: Q04DX003 (ip), vehicle: saline sonified 91 % of control

CCCCC(=O)N/N=C/c1c[nH]c2ccc(Br)cc12
inactive: [11] 88 % of control | [12] 93 % of control | [13] 93 % of control

CCN(CC)C(=O)N1CCN(c2ccc(OC)cc2)CC1
inactive: [9] 94 % of control | dose: 75.0 mg/kg/injection, schedule: Q04DX003 (ip), vehicle: saline 100 % of control | [10] 100 % of control | dose: 150.0 mg/kg/injection, schedule: Q04DX003 (ip), vehicle: saline 100 % of control | dose: 300.0 mg/kg/injection, schedule: Q01DX001 (ip), vehicle: saline 91 % of control | dose: 300.0 mg/kg/injection, schedule: Q04DX003 (ip), vehicle: saline 110 % of control

CCCCCCCCCCCCCCCCCCNC(=S)Nc1ccc(S(=O)(=O)c2ccc(NC(=S)NCCCCCCCCCCCCCCCCCC)cc2)cc1
inactive: [3] 98 % of control | [4] 87 % of control | [6] 106 % of control

C=CCCCCCCCCC(=O)N/N=C/c1ccccc1OC
inactive: dose: 100.0 mg/kg/injection, schedule: Q04DX002 (ip), vehicle: Klucel (hydroxypropylcellulose) (HPC) 110 % of control | dose: 200.0 mg/kg/injection, schedule: Q04DX002 (ip), vehicle: Klucel (hydroxypropylcellulose) (HPC) 104 % of control | dose: 400.0 mg/kg/injection, schedule: Q04DX002 (ip), vehicle: Klucel (hydroxypropylcellulose) (HPC) 110 % of control

O=C(NCCCl)Nc1ccc(Br)cc1
inactive: [11] 101 % of control | [12] 98 % of control | [13] 115 % of control

COc1cc(C)nc2ccc(Cc3ccc4nc(C)cc(OC)c4c3)cc12
inactive: [4] 94 % of control | [5] 93 % of control | [6] 96 % of control

CCCCCCCC#N
inactive: dose: 100.0 mg/kg/injection, schedule: Q01DX001 (ip), vehicle: saline with Tween-80 92 % of control | dose: 200.0 mg/kg/injection, schedule: Q01DX001 (ip), vehicle: saline with Tween-80 97 % of control | dose: 400.0 mg/kg/injection, schedule: Q01DX001 (ip), vehicle: saline with Tween-80 105 % of control

O=CNC(O)C(Cl)(Cl)Cl (centres undefined)
inactive: dose: 100.0 mg/kg/injection, schedule: Q01DX009 (ip), vehicle: saline 98 % of control | dose: 100.0 mg/kg/injection, schedule: Q04DX003 (ip), vehicle: saline 109 % of control | dose: 200.0 mg/kg/injection, schedule: Q01DX009 (ip), vehicle: saline 89 % of control | dose: 200.0 mg/kg/injection, schedule: Q04DX003 (ip), vehicle: saline 95 % of control | dose: 400.0 mg/kg/injection, schedule: Q01DX009 (ip), vehicle: saline 89 % of control | dose: 400.0 mg/kg/injection, schedule: Q04DX003 (ip), vehicle: saline 95 % of control

CC(=O)n1cc(C2CC(=O)OC3=C2C(=O)CCC3)c2ccccc21 (centres undefined)
inactive: [7] 93 % of control | [14] 89 % of control | [8] 93 % of control | [15] 89 % of control | [16] 97 % of control | [17] 91 % of control

O=C(NCc1cnccn1)c1ccccc1Cl
inactive: [7] 86 % of control | [14] 96 % of control | [8] 104 % of control | [15] 96 % of control | [16] 102 % of control | [17] 104 % of control

O/N=C1\c2ccccc2-c2ccc(Br)cc21
inactive: [11] 97 % of control | [12] 117 % of control | [13] 103 % of control
